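Cultured in 96-well plates, cells were exposed to test compound for 48 hours across five concentrations. Here, GI50 denotes the concentration required for 50% inhibition of growth.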 The source made the active and inactive calls. Cut-off read from the data, not from the text of the source: active = GI50 up to about 1.1 µM and inactive = higher.
How the values were obtained:
Assay in all cases: NCI anticancer screen, dose series, 48 h
[1] = tested on: XF498
[2] = tested on: MOLT-4
[3] = tested on: K562
[4] = tested on: SF-295
[5] = tested on: OVCAR-4
[6] = tested on: NCI-H460
[7] = tested on: KM12
[8] = tested on: SW-620
[9] = tested on: U-251
[10] = tested on: SR
[11] = tested on: OVCAR-8
[12] = tested on: SNB-75
[13] = tested on: M14
[14] = tested on: UACC-257
[15] = tested on: UO-31
[16] = tested on: ACHN
[17] = tested on: SK-MEL-28
[18] = tested on: HCT-116
[19] = tested on: MCF7
[20] = tested on: PC-3

| SMILES | GI50 [1] | GI50 [2] | GI50 [3] | GI50 [4] | GI50 [5] | GI50 [6] | GI50 [7] | GI50 [8] | GI50 [9] | GI50 [10] | GI50 [11] | GI50 [12] | GI50 [13] | GI50 [14] | GI50 [15] | GI50 [16] | GI50 [17] | GI50 [18] | GI50 [19] | GI50 [20] |
| --- | --- | --- | --- | --- | --- | --- | --- | --- | --- | --- | --- | --- | --- | --- | --- | --- | --- | --- | --- | --- |
| Brc1ccc(-c2cc3c(cc2C2SCCS2)OCO3)cc1 | 14.2 µM (inactive) | 13.4 µM (inactive) | 15.2 µM (inactive) | 28.2 µM (inactive) | 21.6 µM (inactive) | 29.6 µM (inactive) | 39.4 µM (inactive) | 25.6 µM (inactive) | 29.7 µM (inactive) | 18.4 µM (inactive) | 50.1 µM (inactive) | 1.25 µM (inactive) | 41.6 µM (inactive) | 30 µM (inactive) | 18.1 µM (inactive) | 16.5 µM (inactive) | > 100 µM (inactive) | 30.1 µM (inactive) | – | – |
| CC(c1ccc2c(c1)CCC1C2CC2OC23CC=CC(=O)[C@]13C)C1C[C@]2(C)O[C@]2(C)[C@H](O)O1 (some centres not stated) | 56.9 µM (inactive) | 13.4 µM (inactive) | 3.14 µM (inactive) | – | – | 25.2 µM (inactive) | 36.6 µM (inactive) | 25.3 µM (inactive) | 3.61 µM (inactive) | 13.1 µM (inactive) | 37 µM (inactive) | 58.9 µM (inactive) | 10.7 µM (inactive) | 11.1 µM (inactive) | 10.5 µM (inactive) | 33.7 µM (inactive) | 50.8 µM (inactive) | 0.256 µM (active) | – | – |
| CN(C)CCn1cnc2ncccc2c1=O | > 100 µM (inactive) | > 100 µM (inactive) | > 100 µM (inactive) | > 100 µM (inactive) | > 100 µM (inactive) | > 100 µM (inactive) | > 100 µM (inactive) | > 100 µM (inactive) | > 100 µM (inactive) | > 100 µM (inactive) | > 100 µM (inactive) | > 100 µM (inactive) | > 100 µM (inactive) | – | > 100 µM (inactive) | > 100 µM (inactive) | > 100 µM (inactive) | > 100 µM (inactive) | – | – |
| O=C(CC1(O)C(=O)Nc2ccccc21)c1ccc(F)cc1 (configuration not stated) | > 100 µM (inactive) | > 100 µM (inactive) | > 100 µM (inactive) | > 100 µM (inactive) | > 100 µM (inactive) | > 100 µM (inactive) | – | > 100 µM (inactive) | – | – | > 100 µM (inactive) | > 100 µM (inactive) | > 100 µM (inactive) | > 100 µM (inactive) | > 100 µM (inactive) | > 100 µM (inactive) | > 100 µM (inactive) | > 100 µM (inactive) | – | – |
| CC(=O)O[C@H]1C(=O)[C@@]2(C)C(C(OC(=O)c3ccccc3)[C@]3(O)CC(OC(=O)C(O)C(NC(=O)c4ccccc4)c4ccc(C)cc4)C(C)=C1C3(C)C)[C@]1(OC(C)=O)CO[C@@H]1C[C@@H]2O (some centres not stated) | 0.0025 µM (active) | 0.0163 µM (active) | 0.0308 µM (active) | 0.0787 µM (active) | 3.75 µM (inactive) | 0.00826 µM (active) | 0.0137 µM (active) | 0.00555 µM (active) | 0.0197 µM (active) | – | 0.00979 µM (active) | 0.0531 µM (active) | 0.0161 µM (active) | 0.0656 µM (active) | 2 µM (inactive) | 0.466 µM (active) | – | 0.00938 µM (active) | – | – |
| COC(=O)C1CC/C(=N/c2ccc(C)cc2C)N1 (configuration not stated) | > 100 µM (inactive) | > 100 µM (inactive) | > 100 µM (inactive) | > 100 µM (inactive) | > 100 µM (inactive) | > 100 µM (inactive) | > 100 µM (inactive) | > 100 µM (inactive) | > 100 µM (inactive) | – | > 100 µM (inactive) | 99.3 µM (inactive) | > 100 µM (inactive) | > 100 µM (inactive) | > 100 µM (inactive) | > 100 µM (inactive) | > 100 µM (inactive) | > 100 µM (inactive) | – | – |
| CC(C)=CC(=O)Cc1nc2ccc([N+](=O)[O-])cc2[nH]c1=O | 41.3 µM (inactive) | 25.2 µM (inactive) | 83.8 µM (inactive) | > 100 µM (inactive) | > 100 µM (inactive) | > 100 µM (inactive) | – | > 100 µM (inactive) | – | – | > 100 µM (inactive) | 18.5 µM (inactive) | > 100 µM (inactive) | > 100 µM (inactive) | 63.1 µM (inactive) | > 100 µM (inactive) | > 100 µM (inactive) | > 100 µM (inactive) | – | – |
| COc1ccc2c(c1)-c1nc(=O)n(CCCN(C)C)c3ccc([N+](=O)[O-])c(c13)N2 | – | 0.215 µM (active) | 0.0811 µM (active) | 0.791 µM (active) | 1.77 µM (inactive) | 0.435 µM (active) | 0.873 µM (active) | 0.282 µM (active) | 1.43 µM (inactive) | 0.406 µM (active) | 0.724 µM (active) | 1.28 µM (inactive) | 1.08 µM (active) | 1.04 µM (active) | 0.682 µM (active) | 0.485 µM (active) | 1.19 µM (inactive) | 0.293 µM (active) | 0.448 µM (active) | 0.792 µM (active) |
| c1cc(C2N3CCCN2CC3)ccn1 (configuration not stated) | – | 36.1 µM (inactive) | 28.2 µM (inactive) | > 100 µM (inactive) | 86.7 µM (inactive) | 83.6 µM (inactive) | > 100 µM (inactive) | 41.8 µM (inactive) | 58.3 µM (inactive) | 49.9 µM (inactive) | 53.8 µM (inactive) | > 100 µM (inactive) | 61.1 µM (inactive) | > 100 µM (inactive) | > 100 µM (inactive) | > 100 µM (inactive) | > 100 µM (inactive) | 36.9 µM (inactive) | 37.8 µM (inactive) | > 100 µM (inactive) |
| CCOC(=O)C1=C(C)N(C)C23OC4(C(=O)OC)CC2c2ccccc2C1N3C4=O (configuration not stated) | – | 74.8 µM (inactive) | 83 µM (inactive) | 39.3 µM (inactive) | > 100 µM (inactive) | 20 µM (inactive) | 84.5 µM (inactive) | 41.9 µM (inactive) | > 100 µM (inactive) | 16.5 µM (inactive) | > 100 µM (inactive) | > 100 µM (inactive) | 73.8 µM (inactive) | > 100 µM (inactive) | 25.1 µM (inactive) | > 100 µM (inactive) | > 100 µM (inactive) | 49.8 µM (inactive) | 28.1 µM (inactive) | > 100 µM (inactive) |
| NS(=O)(=O)c1cc(Cl)c(NC(=S)NC(=O)Nc2ccc(Cl)c(Cl)c2)c(Cl)c1 | – | 30.5 µM (inactive) | 35.2 µM (inactive) | 37.8 µM (inactive) | 47.4 µM (inactive) | 30.2 µM (inactive) | 34.7 µM (inactive) | 58.1 µM (inactive) | 37.2 µM (inactive) | 36.2 µM (inactive) | 47.6 µM (inactive) | 59.8 µM (inactive) | 27.5 µM (inactive) | 29.9 µM (inactive) | 44.1 µM (inactive) | 34.1 µM (inactive) | 84.3 µM (inactive) | 35.7 µM (inactive) | 20.4 µM (inactive) | 33.9 µM (inactive) |
| CN(C)/C(F)=P\C(F)(F)F (configuration not stated) | > 100 µM (inactive) | > 100 µM (inactive) | > 100 µM (inactive) | > 100 µM (inactive) | > 100 µM (inactive) | > 100 µM (inactive) | > 100 µM (inactive) | > 100 µM (inactive) | > 100 µM (inactive) | – | > 100 µM (inactive) | > 100 µM (inactive) | > 100 µM (inactive) | > 100 µM (inactive) | > 100 µM (inactive) | > 100 µM (inactive) | > 100 µM (inactive) | > 100 µM (inactive) | – | – |
| CC(=O)Nc1ccc(/C=C/C(=O)c2sc(-c3nc(C)c(C(=O)/C=C/c4ccc(NC(C)=O)cc4)s3)nc2C)cc1 | > 100 µM (inactive) | > 100 µM (inactive) | > 100 µM (inactive) | > 100 µM (inactive) | > 100 µM (inactive) | > 100 µM (inactive) | > 100 µM (inactive) | > 100 µM (inactive) | > 100 µM (inactive) | > 100 µM (inactive) | > 100 µM (inactive) | – | > 100 µM (inactive) | > 100 µM (inactive) | 97.5 µM (inactive) | > 100 µM (inactive) | > 100 µM (inactive) | > 100 µM (inactive) | – | – |
| COC(=O)c1cc(C(=CCC[C@H]2CC[C@@]3(C)C(CCC4C3CC[C@@]3(C)C4CC[C@@H]3C(C)CCCC(C)C)C2)c2cc(Cl)c(OC(=O)c3ccccc3)c(C(=O)OC)c2)cc(Cl)c1OC(=O)c1ccccc1 (some centres not stated) | – | > 10 µM (inactive) | > 10 µM (inactive) | > 10 µM (inactive) | > 10 µM (inactive) | > 10 µM (inactive) | > 10 µM (inactive) | > 10 µM (inactive) | > 10 µM (inactive) | > 10 µM (inactive) | > 10 µM (inactive) | > 10 µM (inactive) | > 10 µM (inactive) | > 10 µM (inactive) | > 10 µM (inactive) | > 10 µM (inactive) | > 10 µM (inactive) | > 10 µM (inactive) | > 10 µM (inactive) | > 10 µM (inactive) |
| C[C@H]1[C@H](C)CC[C@]2(C(=O)OC3OC(CO)C(O)C(O)C3O)CC[C@]3(C)C(=CC[C@@H]4[C@@]5(C)C[C@@H](O)[C@@H]6OC(=O)c7cc(O)c(O)c(O)c7-c7c(cc(O)c(O)c7O)C(=O)OC[C@@]6(CO)[C@@H]5CC[C@]43C)[C@H]12 (some centres not stated) | – | 39.5 µM (inactive) | 32.7 µM (inactive) | > 100 µM (inactive) | 23.9 µM (inactive) | 98.6 µM (inactive) | 58.6 µM (inactive) | 28.6 µM (inactive) | 60.4 µM (inactive) | 38.1 µM (inactive) | 57.1 µM (inactive) | > 100 µM (inactive) | > 100 µM (inactive) | > 100 µM (inactive) | 43.1 µM (inactive) | > 100 µM (inactive) | > 100 µM (inactive) | 46.7 µM (inactive) | 18.6 µM (inactive) | > 88.3 µM (inactive) |
